By EC50 is commonly meant the concentration at which the effect is half-maximal.

Where a name gives a salt, the structure may show the parent alone.

For one assay, the system named is NQO1 specific enzyme activity in BEAS-2B cells. Kind of assay: BEAS-2B NQO1 MTT assay. The format is cell-based. Conditions: Homo sapiens, BEAS-2B, 48 h, NQO1 specific enzyme activity induction in BEAS-2B cells, 48 hours; read-out: EC50. The text has this:
NAD(P)H:quinone oxidoreductase 1 (NQO1), also called DT diaphorase, is a homodimeric FAD-containing enzyme that catalyzes obligatory NAD(P)H-dependent two-electron reductions of quinones and protects cells against the toxic and neoplastic effects of free radicals and reactive oxygen species arising from one-electron reductions. The transcription of NQO1 is finely regulated by NRF2, and thus NQO1 activity is a good marker for NRF2 activation. On day one, frozen BEAS-2B cells (ATCC) are thawed in a water bath, counted, and re-suspended at a concentration of 250,000 cells/mL. Fifty microliters of cells are plated in 384 well black clear-bottomed plates. Plates are incubated at 37° C., 5% CO2 overnight. On day two, plates are centrifuged and 50 nL of compound or controls are added to the cells. Plates are then incubated at 37° C., 5% CO2 for 48 hours. On day four, medium is aspirated from the plate and crude cell lysates are made by adding 13 uL of 1× Cell Signaling Technologies lysis buffer with 1 Complete, Mini, EDTA-free Protease Inhibitor Tablet (Roche) for each 10 mL of lysis buffer. After lysis plates are incubated for 20 minutes at room temperature. Two microliters of lysate are removed for use in Cell Titer Glo assay (Promega) and MTT cocktail is prepared (Prochaska et. al. 1998) for measurement of NQO1 activity. Fifty microliters of MTT cocktail is added to each well, plate is centrifuged, and analyzed on an Envision plate reader (Perkin Elmer) using Absorbance 570 nm label for 30 minutes. Product formation is measured kinetically and the pEC50 of NQO1 specific activity induction is calculated by plotting the change in absorbance (Delta OD/min) versus the log of compound concentration followed by 3-parameter fitting.
EC50s<1 nM (+++++), EC50s 10 nM-1 nM (++++), EC50s 10-100 nM (+++), EC50s 100 nM-1 uM (++), EC50s 1 uM-10 uM (+), EC50s>10 uM (−), or were not determined (ND).
A general note: Formazan colour is commonly taken as a measure of viable cells.
As for `COc1cc(C(CC(=O)O)c2ccc3c(c2)C(N2Cc4cnccc4OC(C)(C)C2)CC3)c(C)c2nnn(C)c12` (stereo not drawn) [Example 36, 3-(3-(2,2-Dimethyl-2,3-dihydropyrido[3,4-f][1,4]oxazepin-4(5H)-yl)-2,3-dihydro-1H-inden-5-yl)-3-(7-methoxy-1,4-dimethyl-1H-benzo[d][1,2,3]triazol-5-yl)propanoic Acid, Formic Acid Salt], the EC50 lay in the range of 1 to 10 nM.
On to `COc1cc(C(CC(=O)O)c2ccc3c(c2)C(N2Cc4ccccc4OC(C)(C)C2)CC3)c(C)c2nnn(C)c12` (stereo not drawn) [Example 29, 3-(3-(2,2-Dimethyl-2,3-dihydrobenzo[f][1,4]oxazepin-4(5H)-yl)-2,3-dihydro-1H-inden-5-yl)-3-(7-methoxy-1,4-dimethyl-1H-benzo[d][1,2,3]triazol-5-yl)propanoic Acid, Formic Acid Salt], for which the EC50 was less than 1 nM.
As for `Cc1c(C(c2ccc3c(c2)C(N2Cc4ccccc4OC(C)(C)C2)CC3)C(C)(C)C(=O)O)ccc2c1nnn2C` (stereo not drawn) [Example 27, 3-(1,4-Dimethyl-1H-benzo[d][1,2,3]triazol-5-yl)-3-(3-(2,2-dimethyl-2,3-dihydrobenzo[f][1,4]oxazepin-4(5H)-yl)-2,3-dihydro-1H-inden-5-yl)-2,2-dimethylpropanoic Acid, 2 Formic Acid Salt], the EC50 is less than 1 nM.
With `CCn1nnc(CCC(c2ccc3c(c2)C(N2Cc4ccccc4OC(C)(C)C2)CC3)C(C)(C)C(=O)O)n1` (stereo not drawn) [Example 64, 3-(3-(2,2-dimethyl-2,3-dihydrobenzo[f][1,4]oxazepin-4(5H)-yl)-2,3-dihydro-1H-inden-5-yl)-5-(2-ethyl-2H-tetrazol-5-yl)-2,2-dimethylpentanoic Acid, Trifluoroacetic Acid Salt], the EC50 fell in the range of 10 to 100 nM.
Still for that read-out and setting: under `CCC1CCC(CN2C(=O)CC3Cc4ccc(C(CC(=O)O)c5ccc6c(nnn6C)c5C)cc4C32)CC1` (stereo not drawn) [Example 2, 3-(1,4-Dimethyl-1H-1,2,3-benzotriazol-5-yl)-3-{1-[(4-ethylcyclohexyl)methyl]-2-oxo-1H,2H,3H,3aH,4H,8bH-indeno[1,2-b]pyrrol-7-yl}propanoic Acid] stands 10 to 100 nM.
As to `CC[C@@H]1CN(C2CCc3ccc(C(CC(=O)O)c4ccc5c(nnn5C)c4C)cc32)Cc2cnccc2O1` (stereo partly drawn) [Example 57, 3-(1,4-Dimethyl-1H-benzo[d][1,2,3]triazol-5-yl)-3-(3-((R)-2-ethyl-2,3-dihydropyrido[3,4-f][1,4]oxazepin-4(5H)-yl)-2,3-dihydro-1H-inden-5-yl)propanoic Acid, Formic Acid Salt], the EC50 lay within 100 to 1000 nM.
Turning to `Cc1c(C(c2ccc3c(c2)C(N2Cc4cccnc4OC(C)(C)C2)CC3)C(C)(C)C(=O)O)ccc2c1nnn2C` (stereo not drawn) [Example 34, 3-(1,4-Dimethyl-1H-benzo[d][1,2,3]triazol-5-yl)-3-(3-(2,2-dimethyl-2,3-dihydropyrido[3,2-f][1,4]oxazepin-4(5H)-yl)-2,3-dihydro-1H-inden-5-yl)-2,2-dimethylpropanoic acid, Formic Acid Salt], the 50% effective concentration (EC50) was in the range of 1 to 10 nM.
On the same count and under the same terms, under `Cc1c(C(CC(=O)O)c2ccc3c(c2)C2C(C3)OC(=O)N2CC2CCCCC2)ccc2c1nnn2C` (stereo not drawn) [Example 20, 3-(3-(Cyclohexylmethyl)-2-oxo-3,3a,8,8a-tetrahydro-2H-indeno[1,2-d]oxazol-5-yl)-3-(1,4-dimethyl-1H-benzo[d][1,2,3]triazol-5-yl)propanoic Acid] stands 100 to 1000 nM; under `Cc1c([C@H](c2ccc3c(c2)[C@H](N2Cc4ncccc4OC(C)(C)C2)CC3)C(C)(C)C(=O)O)ccc2c1nnn2C` (racemic) [Example 67, rac-(R)-3-(1,4-Dimethyl-1H-benzo[d][1,2,3]triazol-5-yl)-3-(rac-(S)-3-(2,2-dimethyl-2,3-dihydropyrido[2,34][1,4]oxazepin-4(5H)-yl)-2,3-dihydro-1H-inden-5-yl)-2,2-dimethylpropanoic Acid, Trifluoroacetic Acid Salt], less than 1 nM; under `CC[C@@H]1CN([C@@H]2CCc3ccc(C(CC(=O)O)c4ccc5c(nnn5C)c4C)cc32)Cc2ccccc2O1` (relative stereo) [Example 84, rel-(R)-3-(1,4-Dimethyl-1H-benzo[d][1,2,3]triazol-5-yl)-3-(rel-(R)-3-((R)-2-ethyl-2,3-dihydrobenzo[f][1,4]oxazepin-4(5H)-yl)-2,3-dihydro-1H-inden-5-yl)propanoic acid], 1000 to 10000 nM.
Same read-out and setting: under `Cc1c(C(CC(=O)O)c2ccc3c(c2)C(N2Cc4cc(C#N)ccc4OC(C)(C)C2)CC3)ccc2c1nnn2C` (stereo not drawn) [Example 28, 3-(3-(7-Cyano-2,2-dimethyl-2,3-dihydrobenzo[f][1,4]oxazepin-4(5H)-yl)-2,3-dihydro-1H-inden-5-yl)-3-(1,4-dimethyl-1H-benzo[d][1,2,3]triazol-5-yl)propanoic Acid, Formic Acid Salt] stands less than 1 nM.
Regarding `Cc1c([C@H](c2ccc3c(c2)[C@H](N2Cc4ccccc4OC(C)(C)C2)CC3)C(C)(C)C(=O)O)ccc2c1nnn2C` (stereo in doubt) [Example 77, rel-(S)-3-(1,4-Dimethyl-1H-benzo[d][1,2,3]triazol-5-yl)-3-(rel-(R)-3-(2,2-dimethyl-2,3-dihydrobenzo[f][1,4]oxazepin-4(5H)-yl)-2,3-dihydro-1H-inden-5-yl)-2,2-dimethylpropanoic Acid], the 50% effective concentration (EC50) was less than 1 nM.
For the compound `COc1cc(C(CC(=O)O)c2ccc3c(c2)C2C(CCN2C(=O)OC(C)(C)C)C3)c(C)c2nnn(C)c12` (stereo not drawn) [Example 18, 3-(1-(tert-Butoxycarbonyl)-1,2,3,3a,4,8b-hexahydroindeno[1,2-b]pyrrol-7-yl)-3-(7-methoxy-1,4-dimethyl-1H-benzo[d][1,2,3]triazol-5-yl)propanoic Acid], the EC50 lay within 10 to 100 nM.
Consider `Cc1c(C(c2ccc3c(c2)C(N2CCOc4ncccc4C2)CC3)C(C)(C)C(=O)O)ccc2c1nnn2C` (stereo not drawn) [Example 54, 3-(3-(2,3-Dihydropyrido[3,2-f][1,4]oxazepin-4(5H)-yl)-2,3-dihydro-1H-inden-5-yl)-3-(1,4-dimethyl-1H-benzo[d][1,2,3]triazol-5-yl)-2,2-dimethylpropanoic Acid, Formic Acid Salt, Formic Acid Salt], for which the EC50 was 100 to 1000 nM.
For the compound `Cc1c(C(CC(=O)O)c2ccc3c(c2)C2C(CCN2C(=O)Cc2ccccc2Cl)C3)ccc2c1nnn2C` (stereo not drawn) [Example 11, 3-{1-[2-(2-Chlorophenyl)acetyl]-1H,2H,3H,3aH,4H,8bH-indeno[1,2-b]pyrrol-7-yl}-3-(1,4-dimethyl-1H-1,2,3-benzotriazol-5-yl)propanoic Acid], the EC50 lay in the range of 1000 to 10000 nM.
In the case of `Cc1c(C(CC(=O)O)c2ccc3c(c2)C(N2Cc4cc(Cl)ccc4OC(C)(C)C2)CC3)ccc2c1nnn2C` (stereo not drawn) [Example 21, 3-(3-(7-Chloro-2,2-dimethyl-2,3-dihydrobenzo[f][1,4]oxazepin-4(5H)-yl)-2,3-dihydro-1H-inden-5-yl)-3-(1,4-dimethyl-1H-benzo[d][1,2,3]triazol-5-yl)propanoic Acid, Formic Acid Salt], the EC50 lay in the range of 1 to 10 nM.
Consider `Cn1nnc2cc(C(CC(=O)O)c3ccc4c(c3)C(N3Cc5cccnc5OC(C)(C)C3)CC4)ncc21` (stereo not drawn) [Example 62, 3-(3-(2,2-Dimethyl-2,3-dihydropyrido[3,2-f][1,4]oxazepin-4(5H)-yl)-2,3-dihydro-1H-inden-5-yl)-3-(3-methyl-3H-[1,2,3]triazolo[4,5-c]pyridin-6-yl)propanoic Acid, Formic Acid Salt], for which the EC50 lay within 1000 to 10000 nM.

The same assay, now with this note: Homo sapiens, BEAS-2B, NQO1 specific enzyme activity in BEAS-2B cells; in some determinations; read-out: EC50 values in some determinations.
Take `Cc1c(C(c2ccc3c(c2)C(N2Cc4ccccc4OC(C)(C)C2)CC3)C(C)(C)C(=O)O)ccc2c1nnn2C` (stereo not drawn) [Example 27, 3-(1,4-Dimethyl-1H-benzo[d][1,2,3]triazol-5-yl)-3-(3-(2,2-dimethyl-2,3-dihydrobenzo[f][1,4]oxazepin-4(5H)-yl)-2,3-dihydro-1H-inden-5-yl)-2,2-dimethylpropanoic Acid, 2 Formic Acid Salt]: the EC50 is less than 0.17 nM.

Values taken from US10272095B2 (GlaxoSmithKline Intellectual Property Development Limited, priority 2015, dated 2019).
